Source: patent US6958145B2, “Synthesis of cyclic compounds” (Unisearch Limited, priority 2000, dated 2005)

Key:
[1] = test system: AHL mediated quorum sensing
[2] = test system: two-component signal transduction; assay: Taz-1 assay, two-component signal transduction; format: cell-based, E. coli; conditions: beta-galactosidase readout
Procedure: The Taz-assay carried out according to the method of Jin and Inouye (1993) with the following alterations. E. coli RU1012 (pYT0301) were grown overnight in M9 medium at 37° C. supplemented with 100 ug/ml ampicillin and 50 ug/ml kanamycin. This overnight culture was then used to inoculate 50 ml M9 medium in side-arm flasks which were then incubated at 37° C. and shaken at 180 rpm. The OD610 of the growing cultures was monitored regularly and when the OD610=0.2 the cultures were placed on ice. Aspartate was added to side-arm flasks to give a final concentration of 3 mM (aspartate stock solution made up in M9 salts).
The test compound or mixtures of compounds were dissolved in ethanol and added to cultures to give the required final concentrations. Negative controls were prepared with equal volumes of ethanol. Cultures were then placed in a 37° C. incubator and shaken for 4 hours (OD610 approximately 0.7) before being removed and put on ice. Samples were then removed for […]eta-galactosidase assays carried out according to the method of Miller (1972).

[3] = test system: AI-2 activity; assay: V. harveyi bioassay for the detection of AI-2 activity; format: cell-based; conditions: V. harveyi BB170 luminescence
Procedure: The V. harveyi bioassay was performed as described previously (Surette and Bassler, 1998). The V. harveyi reporter strain BB170 was grown for 16 hours at 30° C. with shaking in AB medium. Cells were diluted 1:5,000 into 30° C. prewarmed AB medium and 90 ul of the diluted suspension was added to wells containing supernatant. Furanones were added to the wells to achieve the desired final concentrations and the final volume in each well was adjusted with sterile medium to 100 ul. Ten ul of V. harveyi BB152 (AI-1−, AI-2+) supernatant was used as a positive control and 10 ul of E. coli DH5α supernatant or sterile media was used as a negative control. […] The microtiter plates were incubated at 30° C. with shaking at 175 rpm. Hourly determinations of the total luminescence were quantified using the chemiluminescent setting on a Wallac (Gaithersburg, Md.) model 1450 Microbeta Plus liquid scintillation counter. The V. harveyi cell density was monitored by the use of a microplate reader (Bio-Rad, Hercules, Calif.). Activity is reported as the percentage of activity obtained from V. harveyi BB152 cell-free supernatant. While the absolute values of luminescence varied considerably between experiments, the pattern of results obtained was reproducible.

Row | SMILES | AHL (inhibitor of AHL-mediated quorum sensing) [1] | 2 component (two-component signal transduction assay) [2] | AI-2 (AI-2 activity) [3] [% reduction]
1 | CC1=CC(=C(Br)Br)OC1=O [compound 64] | good | No effect | 80
2 | CC1=CC(=O)OC1(Br)C(Br)Br (stereo not shown) [compound 72] | – | – | 97
